Experimental data published in publication PMC2752989 (PLoS ONE, 2009).

Legend:
bacteria = conditions: cited from earlier work
[1] = test system: Candida parapsilosis ATCC 90018; assay type: cell-based; conditions: pH 7.4
[2] = test system: C. parapsilosis ATCC 90018; assay type: cell-based, Candida parapsilosis; conditions: n = 3

Substance | antibacterial activity in physiological buffers and plasma (bacteria) | antimicrobial activity (viable count) with Zn2+ [1] | antimicrobial activity (viable count) without Zn2+ [1] | antimicrobial activity in RDA at low pH versus normal pH [2] | antimicrobial activity in RDA with versus without Zn2+ [2] | cell permeabilization (LDH release) (HaCaT keratinocytes)
HKHGHGHGKHKNKGKKNGKH [HKH20, kininogen-derived antimicrobial peptide] | retain antibacterial activity in physiological buffers as well as in plasma |  |  |  |  | 
GHHPHGHHPHGHHPHGHHPH [GHH20, H-rich control peptide derived from histidine-rich glycoprotein] |  | dose-dependent killing | showed no antimicrobial activity | showed enhanced activity at low pH | significantly enhanced | 
GKRKKKGKGLGKKRDPCLRKYK [GKR22] | retain antibacterial activity in physiological buffers as well as in plasma |  |  |  |  | 
AHHAHAAHHAHAAHHAHAAHHAHA [AHH24, previously described H-rich control peptide] |  | dose-dependent killing | showed no antimicrobial activity | showed enhanced activity at low pH | significantly enhanced | 
LL-37: classical human antimicrobial cathelicidin peptide, benchmark |  |  |  |  |  | less active
